Key:
[1] = molecular target: Mitogen-activated protein kinase 1 (Homo sapiens) (UniProt P28482); test: Inhibition of ERK2 assessed as enzyme activity at 1 uM relative to untreated control; parameters: scale not given: the % may be the effect or the level left
[2] = molecular target: Dual specificity mitogen-activated protein kinase kinase 1 (Homo sapiens) (UniProt Q02750); test: Inhibition of MEK1 assessed as enzyme activity at 1 uM relative to untreated control; parameters: scale not given: the % may be the effect or the level left
[3] = system: A-375; test: Antitumor activity against human A375 SQ2 cells xenografted in CD1 mouse assessed as inhibition of tumor growth at 2 mg/kg, po qd for 14 days; assay type: functional; settings: A375-SQ2, 336 h
[4] = molecular target: Cyclin-dependent kinase 7 (Homo sapiens) (UniProt P50613); test: Inhibition of CDK7 assessed as enzyme activity at 1 uM relative to untreated control; parameters: scale not given: the % may be the effect or the level left
[5] = molecular target: Death-associated protein kinase 3 (Homo sapiens) (UniProt O43293); test: Inhibition of DAPK3 assessed as enzyme activity at 1 uM relative to untreated control; parameters: scale not given: the % may be the effect or the level left
[6] = molecular target: STE20-like serine/threonine-protein kinase (Homo sapiens) (UniProt Q9H2G2); test: Inhibition of SLK assessed as enzyme activity at 1 uM relative to untreated control; parameters: scale not given: the % may be the effect or the level left
[7] = molecular target: Dual specificity mitogen-activated protein kinase kinase 6 (Homo sapiens) (UniProt P52564); test: Inhibition of MEK6 assessed as enzyme activity at 1 uM relative to untreated control; parameters: scale not given: the % may be the effect or the level left
[8] = molecular target: Fibroblast growth factor receptor 2 (Homo sapiens) (UniProt P21802); test: Inhibition of FGFR2 assessed as enzyme activity at 1 uM relative to untreated control; parameters: scale not given: the % may be the effect or the level left
[9] = molecular target: Dual specificity mitogen-activated protein kinase kinase 2 (Homo sapiens) (UniProt P36507); test: Inhibition of MEK2 assessed as enzyme activity at 1 uM relative to untreated control; parameters: scale not given: the % may be the effect or the level left
[10] = molecular target: MAP kinase-interacting serine/threonine-protein kinase 1 (Homo sapiens) (UniProt Q9BUB5); test: Inhibition of MKNK1 assessed as enzyme activity at 1 uM relative to untreated control; parameters: scale not given: the % may be the effect or the level left
[11] = molecular target: Serine/threonine-protein kinase RIO3 (Homo sapiens) (UniProt O14730); test: Inhibition of RIOK3 assessed as enzyme activity at 1 uM relative to untreated control; parameters: scale not given: the % may be the effect or the level left
Chain of Serine/threonine-protein kinase RIO3 (Homo sapiens) (O14730 whole entry): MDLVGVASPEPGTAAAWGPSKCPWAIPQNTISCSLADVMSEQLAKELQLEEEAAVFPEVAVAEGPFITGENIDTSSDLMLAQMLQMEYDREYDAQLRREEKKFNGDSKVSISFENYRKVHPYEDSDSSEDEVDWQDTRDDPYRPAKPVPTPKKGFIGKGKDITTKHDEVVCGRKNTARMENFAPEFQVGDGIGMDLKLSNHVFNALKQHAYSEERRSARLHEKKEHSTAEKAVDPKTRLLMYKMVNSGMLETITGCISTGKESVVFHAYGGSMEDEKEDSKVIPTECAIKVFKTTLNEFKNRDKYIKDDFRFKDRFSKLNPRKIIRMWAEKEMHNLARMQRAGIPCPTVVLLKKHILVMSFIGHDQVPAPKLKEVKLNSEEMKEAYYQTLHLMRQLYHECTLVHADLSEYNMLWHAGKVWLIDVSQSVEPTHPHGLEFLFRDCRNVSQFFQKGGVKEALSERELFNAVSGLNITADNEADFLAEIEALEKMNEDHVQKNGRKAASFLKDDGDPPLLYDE

[12] = molecular target: Activin receptor type-2A (Homo sapiens) (UniProt P27037); test: Inhibition of ACVR2A assessed as enzyme activity at 1 uM relative to untreated control; parameters: scale not given: the % may be the effect or the level left
[13] = system: Tyrosine-protein kinase ABL1 (Homo sapiens), P00519 [F317L]; test: Inhibition of ABL1 F317L mutant assessed as enzyme activity at 1 uM relative to untreated control; parameters: scale not given: the % may be the effect or the level left
[14] = molecular target: Misshapen-like kinase 1 (Homo sapiens) (UniProt Q8N4C8); test: Inhibition of MINK assessed as enzyme activity at 1 uM relative to untreated control; parameters: scale not given: the % may be the effect or the level left
[15] = molecular target: Calcium/calmodulin-dependent protein kinase type II subunit delta (Homo sapiens) (UniProt Q13557); test: Inhibition of CAMK2D assessed as enzyme activity at 1 uM relative to untreated control; parameters: scale not given: the % may be the effect or the level left
[16] = molecular target: Serine/threonine-protein kinase PAK 4 (Homo sapiens) (UniProt O96013); test: Inhibition of PAK4 assessed as enzyme activity at 1 uM relative to untreated control; parameters: scale not given: the % may be the effect or the level left
Chain of Serine/threonine-protein kinase PAK 4 (Homo sapiens) (O96013 whole entry, looked up, canonical isoform): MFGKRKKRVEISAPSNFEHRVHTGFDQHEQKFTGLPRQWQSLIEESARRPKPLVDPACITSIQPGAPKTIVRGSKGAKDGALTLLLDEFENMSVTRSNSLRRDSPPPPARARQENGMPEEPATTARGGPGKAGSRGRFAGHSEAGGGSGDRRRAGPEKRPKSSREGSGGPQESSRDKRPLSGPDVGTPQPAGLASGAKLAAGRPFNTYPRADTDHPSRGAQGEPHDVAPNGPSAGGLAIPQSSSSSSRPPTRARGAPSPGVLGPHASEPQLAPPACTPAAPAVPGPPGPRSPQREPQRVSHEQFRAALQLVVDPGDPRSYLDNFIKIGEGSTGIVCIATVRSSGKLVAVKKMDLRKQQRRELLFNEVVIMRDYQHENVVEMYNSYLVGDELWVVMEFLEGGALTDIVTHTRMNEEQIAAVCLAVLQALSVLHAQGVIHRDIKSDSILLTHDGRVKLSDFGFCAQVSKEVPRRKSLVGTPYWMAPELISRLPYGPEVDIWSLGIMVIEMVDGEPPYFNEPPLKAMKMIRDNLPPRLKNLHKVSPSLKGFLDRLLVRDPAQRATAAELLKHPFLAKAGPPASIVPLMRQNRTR

[17] = molecular target: Casein kinase I isoform gamma-3 (Homo sapiens) (UniProt Q9Y6M4); test: Inhibition of CSNK1G3 assessed as enzyme activity at 1 uM relative to untreated control; parameters: scale not given: the % may be the effect or the level left
[18] = molecular target: Tyrosine-protein kinase FRK (Homo sapiens) (UniProt P42685); test: Inhibition of FRK assessed as enzyme activity at 1 uM relative to untreated control; parameters: scale not given: the % may be the effect or the level left
Chain of Tyrosine-protein kinase FRK (Homo sapiens) (P42685 whole entry): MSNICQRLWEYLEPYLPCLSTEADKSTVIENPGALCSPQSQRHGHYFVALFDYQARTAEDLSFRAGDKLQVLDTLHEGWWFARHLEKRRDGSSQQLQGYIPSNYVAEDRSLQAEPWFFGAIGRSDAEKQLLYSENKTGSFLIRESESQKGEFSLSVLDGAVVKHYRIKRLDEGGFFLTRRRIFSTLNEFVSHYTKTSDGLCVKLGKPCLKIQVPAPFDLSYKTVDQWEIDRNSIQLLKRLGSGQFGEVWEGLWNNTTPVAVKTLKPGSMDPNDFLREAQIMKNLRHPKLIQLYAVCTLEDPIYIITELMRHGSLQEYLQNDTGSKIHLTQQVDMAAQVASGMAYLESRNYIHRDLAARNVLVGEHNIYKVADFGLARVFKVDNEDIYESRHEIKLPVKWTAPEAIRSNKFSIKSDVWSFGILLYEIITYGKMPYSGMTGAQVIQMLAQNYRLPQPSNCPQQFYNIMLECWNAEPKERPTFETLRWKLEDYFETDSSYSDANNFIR

[19] = molecular target: Dual specificity protein kinase CLK3 (Homo sapiens) (UniProt P49761); test: Inhibition of CLK3 assessed as enzyme activity at 1 uM relative to untreated control; parameters: scale not given: the % may be the effect or the level left
[20] = molecular target: Mitogen-activated protein kinase kinase kinase kinase 4 (Homo sapiens) (UniProt O95819); test: Inhibition of MAP4K4 assessed as enzyme activity at 1 uM relative to untreated control; parameters: scale not given: the % may be the effect or the level left
Chain of Mitogen-activated protein kinase kinase kinase kinase 4 (Homo sapiens) (O95819 2-1239 limits assumed): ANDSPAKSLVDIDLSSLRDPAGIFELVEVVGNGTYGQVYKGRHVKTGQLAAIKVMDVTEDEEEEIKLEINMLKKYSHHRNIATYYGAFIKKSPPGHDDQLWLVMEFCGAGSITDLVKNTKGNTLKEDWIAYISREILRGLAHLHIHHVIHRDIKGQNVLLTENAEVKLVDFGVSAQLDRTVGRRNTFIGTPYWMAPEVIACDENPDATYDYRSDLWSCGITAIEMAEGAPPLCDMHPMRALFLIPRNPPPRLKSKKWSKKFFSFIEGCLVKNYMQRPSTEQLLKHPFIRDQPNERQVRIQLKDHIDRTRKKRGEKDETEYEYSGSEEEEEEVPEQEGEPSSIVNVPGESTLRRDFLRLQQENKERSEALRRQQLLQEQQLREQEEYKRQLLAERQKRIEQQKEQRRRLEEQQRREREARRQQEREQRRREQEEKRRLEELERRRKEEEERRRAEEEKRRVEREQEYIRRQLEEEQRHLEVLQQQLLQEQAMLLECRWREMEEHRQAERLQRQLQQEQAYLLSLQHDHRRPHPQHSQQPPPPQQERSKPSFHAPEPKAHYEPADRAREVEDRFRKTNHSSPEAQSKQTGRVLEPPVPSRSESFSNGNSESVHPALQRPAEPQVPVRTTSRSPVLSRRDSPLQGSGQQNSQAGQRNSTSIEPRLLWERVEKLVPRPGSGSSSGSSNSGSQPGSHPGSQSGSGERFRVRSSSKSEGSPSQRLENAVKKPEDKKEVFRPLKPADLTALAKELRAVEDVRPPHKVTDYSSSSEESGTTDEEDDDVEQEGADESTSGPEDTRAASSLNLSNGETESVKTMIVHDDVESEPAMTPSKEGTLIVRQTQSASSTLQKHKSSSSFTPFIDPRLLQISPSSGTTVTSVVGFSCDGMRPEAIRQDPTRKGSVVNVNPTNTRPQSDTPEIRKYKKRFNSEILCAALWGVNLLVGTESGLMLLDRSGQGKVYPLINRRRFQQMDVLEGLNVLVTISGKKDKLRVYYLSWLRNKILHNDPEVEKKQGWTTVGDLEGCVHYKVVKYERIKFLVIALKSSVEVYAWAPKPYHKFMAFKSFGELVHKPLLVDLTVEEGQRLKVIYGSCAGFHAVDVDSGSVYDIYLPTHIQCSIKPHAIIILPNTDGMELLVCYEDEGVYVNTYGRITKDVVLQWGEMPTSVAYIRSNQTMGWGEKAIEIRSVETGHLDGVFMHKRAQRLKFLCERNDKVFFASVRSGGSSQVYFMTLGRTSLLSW

[21] = molecular target: Calcium/calmodulin-dependent protein kinase type 1 (Homo sapiens) (UniProt Q14012); test: Inhibition of CAMK1 assessed as enzyme activity at 1 uM relative to untreated control; parameters: scale not given: the % may be the effect or the level left
[22] = molecular target: Serine/threonine-protein kinase PAK 5 (Homo sapiens) (UniProt Q9P286); test: Inhibition of PAK7/PAK5 assessed as enzyme activity at 1 uM relative to untreated control; parameters: scale not given: the % may be the effect or the level left
[23] = molecular target: Non-receptor tyrosine-protein kinase TYK2 (Homo sapiens) (UniProt P29597); test: Inhibition of TYK2 kinase domain 2 assessed as enzyme activity at 1 uM relative to untreated control; parameters: scale not given: the % may be the effect or the level left
[24] = molecular target: Ephrin type-A receptor 4 (Homo sapiens) (UniProt P54764); test: Inhibition of EPHA4 assessed as enzyme activity at 1 uM relative to untreated control; parameters: scale not given: the % may be the effect or the level left
[25] = molecular target: Ephrin type-A receptor 3 (Homo sapiens) (UniProt P29320); test: Inhibition of EPHA3 assessed as enzyme activity at 1 uM relative to untreated control; parameters: scale not given: the % may be the effect or the level left
[26] = molecular target: Serine/threonine-protein kinase PLK3 (Homo sapiens) (UniProt Q9H4B4); test: Inhibition of PLK3 assessed as enzyme activity at 1 uM relative to untreated control; parameters: scale not given: the % may be the effect or the level left
[27] = molecular target: 5'-AMP-activated protein kinase catalytic subunit alpha-1 (Homo sapiens) (UniProt Q13131); test: Inhibition of AMPKalpha1 assessed as enzyme activity at 1 uM relative to untreated control; parameters: scale not given: the % may be the effect or the level left
[28] = molecular target: Ribosomal protein S6 kinase alpha-4 (Homo sapiens) (UniProt O75676); test: Inhibition of RPS6KA4 kinase domain 1 assessed as enzyme activity at 1 uM relative to untreated control; parameters: scale not given: the % may be the effect or the level left
[29] = molecular target: Casein kinase II subunit alpha (Homo sapiens) (UniProt P68400); test: Inhibition of CSNK2A1 assessed as enzyme activity at 1 uM relative to untreated control; parameters: scale not given: the % may be the effect or the level left
Chain of Casein kinase II subunit alpha (Homo sapiens) (P68400 whole entry, looked up): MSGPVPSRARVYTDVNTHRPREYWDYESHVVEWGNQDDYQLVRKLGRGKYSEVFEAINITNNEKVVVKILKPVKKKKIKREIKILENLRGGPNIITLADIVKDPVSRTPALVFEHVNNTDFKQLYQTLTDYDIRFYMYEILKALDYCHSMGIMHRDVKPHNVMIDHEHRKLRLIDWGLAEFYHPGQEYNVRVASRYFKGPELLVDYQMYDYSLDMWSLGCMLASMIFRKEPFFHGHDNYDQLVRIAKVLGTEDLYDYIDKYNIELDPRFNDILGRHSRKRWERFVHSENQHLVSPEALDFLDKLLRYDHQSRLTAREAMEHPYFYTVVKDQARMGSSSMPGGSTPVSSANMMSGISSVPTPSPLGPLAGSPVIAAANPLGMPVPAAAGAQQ

[30] = molecular target: Tyrosine-protein kinase Fer (Homo sapiens) (UniProt P16591); test: Inhibition of FER assessed as enzyme activity at 1 uM relative to untreated control; parameters: scale not given: the % may be the effect or the level left
[31] = molecular target: Receptor tyrosine-protein kinase erbB-4 (Homo sapiens) (UniProt Q15303); test: Inhibition of ERBB4 assessed as enzyme activity at 1 uM relative to untreated control; parameters: scale not given: the % may be the effect or the level left
[32] = molecular target: Serine/threonine-protein kinase N1 (Homo sapiens) (UniProt Q16512); test: Inhibition of PKN1 assessed as enzyme activity at 1 uM relative to untreated control; parameters: scale not given: the % may be the effect or the level left
[33] = molecular target: RAC-beta serine/threonine-protein kinase (Homo sapiens) (UniProt P31751); test: Inhibition of AKT2 assessed as enzyme activity at 1 uM relative to untreated control; parameters: scale not given: the % may be the effect or the level left
Chain of RAC-beta serine/threonine-protein kinase (Homo sapiens) (P31751 whole entry): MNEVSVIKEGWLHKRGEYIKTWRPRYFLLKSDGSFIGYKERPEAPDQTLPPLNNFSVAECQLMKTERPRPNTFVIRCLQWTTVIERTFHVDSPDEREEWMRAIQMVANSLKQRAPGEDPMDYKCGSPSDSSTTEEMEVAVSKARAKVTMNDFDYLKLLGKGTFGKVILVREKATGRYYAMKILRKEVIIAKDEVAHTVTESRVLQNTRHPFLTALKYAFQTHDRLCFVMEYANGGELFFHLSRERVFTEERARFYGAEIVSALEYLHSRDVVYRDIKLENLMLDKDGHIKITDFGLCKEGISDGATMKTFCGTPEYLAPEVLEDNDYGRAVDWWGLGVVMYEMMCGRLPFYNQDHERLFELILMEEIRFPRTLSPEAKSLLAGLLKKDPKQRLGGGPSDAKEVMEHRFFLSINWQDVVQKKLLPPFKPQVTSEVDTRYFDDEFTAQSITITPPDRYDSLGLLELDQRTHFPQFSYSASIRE

[34] = molecular target: Cyclin-dependent kinase 5 (Homo sapiens) (UniProt Q00535); test: Inhibition of CDK5 assessed as enzyme activity at 1 uM relative to untreated control; parameters: scale not given: the % may be the effect or the level left
[35] = molecular target: Dual specificity testis-specific protein kinase 1 (Homo sapiens) (UniProt Q15569); test: Inhibition of TESK1 assessed as enzyme activity at 1 uM relative to untreated control; parameters: scale not given: the % may be the effect or the level left
[36] = molecular target: NUAK family SNF1-like kinase 1 (Homo sapiens) (UniProt O60285); test: Inhibition of ARK5 assessed as enzyme activity at 1 uM relative to untreated control; parameters: scale not given: the % may be the effect or the level left
Chain of NUAK family SNF1-like kinase 1 (Homo sapiens) (O60285 whole entry): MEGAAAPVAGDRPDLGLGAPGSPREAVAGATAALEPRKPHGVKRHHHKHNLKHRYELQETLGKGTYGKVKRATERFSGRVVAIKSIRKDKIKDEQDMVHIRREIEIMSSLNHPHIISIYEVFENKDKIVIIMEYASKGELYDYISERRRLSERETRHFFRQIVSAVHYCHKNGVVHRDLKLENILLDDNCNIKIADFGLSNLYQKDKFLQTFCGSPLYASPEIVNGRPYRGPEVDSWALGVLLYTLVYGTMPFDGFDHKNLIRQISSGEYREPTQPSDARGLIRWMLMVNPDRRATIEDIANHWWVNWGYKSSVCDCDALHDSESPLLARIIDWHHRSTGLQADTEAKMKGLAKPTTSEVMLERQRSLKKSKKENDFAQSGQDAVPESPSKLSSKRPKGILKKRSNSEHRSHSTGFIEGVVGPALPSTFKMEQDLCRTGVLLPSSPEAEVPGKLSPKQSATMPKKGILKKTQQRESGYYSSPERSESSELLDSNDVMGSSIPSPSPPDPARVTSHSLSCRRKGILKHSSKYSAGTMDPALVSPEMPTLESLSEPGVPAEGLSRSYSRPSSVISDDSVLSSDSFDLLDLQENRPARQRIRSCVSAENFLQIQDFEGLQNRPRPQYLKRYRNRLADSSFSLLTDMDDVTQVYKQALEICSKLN

[37] = Oral bioavailability in Sprague-Dawley rat at 5 mg/kg; assay type: ADME, organism-based; settings: in vivo

Chain of Mitogen-activated protein kinase 1 (Homo sapiens) (P28482 whole entry): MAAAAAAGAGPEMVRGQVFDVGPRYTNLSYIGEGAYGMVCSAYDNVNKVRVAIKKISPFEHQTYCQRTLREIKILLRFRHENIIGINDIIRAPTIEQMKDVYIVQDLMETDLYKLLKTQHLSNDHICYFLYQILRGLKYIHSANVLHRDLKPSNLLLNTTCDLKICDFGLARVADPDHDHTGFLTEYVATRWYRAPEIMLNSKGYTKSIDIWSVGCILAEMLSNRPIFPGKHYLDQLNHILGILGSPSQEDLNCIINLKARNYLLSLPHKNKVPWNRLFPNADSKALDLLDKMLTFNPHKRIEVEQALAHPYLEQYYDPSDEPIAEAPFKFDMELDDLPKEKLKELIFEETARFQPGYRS

SMILES: Cc1ccc2c(Nc3ccc(Cl)cc3)nccc2c1Nc1ncccc1-c1ncnc2[nH]cnc12.Cl.Cl.Cl
- Activity [1]: 100%
- Activity [2]: 100%
- inhibition in vivo at 2 mg/kg [3]: 90%
- Activity [4]: 100%
- Activity [5]: 100%
- Activity [6]: 40%
- Activity [7]: 96%
- Activity [8]: 38%
- Activity [9]: 99%
- Activity [10]: 100%
- Activity [11]: 77%
- Activity [12]: 100%
- Activity [13]: 79%
- Activity [14]: 80%
- Activity [15]: 79%
- Activity [16]: 92%
- Activity [17]: 100%
- Activity [18]: 17%
- Activity [19]: 94%
- Activity [20]: 95%
- Activity [21]: 100%
- Activity [22]: 90%
- Activity [23]: 28%
- Activity [24]: 22%
- Activity [25]: 74%
- Activity [26]: 98%
- Activity [27]: 89%
- Activity [28]: 100%
- Activity [29]: 100%
- Activity [30]: 78%
- Activity [31]: 98%
- Activity [32]: 100%
- Activity [33]: 88%
- Activity [34]: 100%
- Activity [35]: 21%
- Activity [36]: 100%
- bioavailability [37]: 80%
